Values joined by “and” are separate entries in the source; they are usually repeats but may differ in a detail not shown here. Equal values may be shown once. ± gives the expanded uncertainty stated by the source.

The nature of this data set: refractive index (Na D-line) (dimensionless); wn = mass fraction of the nth substance listed. As to conditions: 298.15 K, 101 kPa, Liquid, Standard Abbe refractometry.

What is called refractive index is a measure of how strongly the sample bends light. Regarding `O=C([O-])[C@H](O)[C@@H](O)C(=O)[O-].[Na+].[Na+]` [disodium L-tartrate] + O, the refractive index was 1.3393 ± 0.0008 (w1 = 0.0401); 1.3404 ± 0.0008 (w1 = 0.0452); 1.34 ± 0.0008 and 1.3403 ± 0.0008 (w1 = 0.0472). As for `CCC(C)O` (stereo unspecified) [butan-2-ol] + O, the refractive index (w1 = 0.0982) was found to be 1.3431 ± 0.0008.

Take `CC(C)(C)O` [2-methylpropan-2-ol] + O: under “w1 = 0.0971”, the refractive index is reported as 1.3426 ± 0.0008. For `CCCO` [propan-1-ol] + O, where the note is “w1 = 0.0949”, the refractive index was 1.3413 ± 0.0008.
